Data as given in article PMC4760375, “A dual phosphorylation switch controls 14-3-3-dependent cell surface expression of TASK-1” (Journal of Cell Science, 2016).
Non-standard residues stand in square brackets, D forms with d. Residues, ends and D or L forms follow the SMILES beside them. No end group written: not given here. pS = N[C@@H](COP(=O)(O)O)C(=O)O

Legend:
14-3-3 proteins = assay: Surface plasmon resonance, statements across the 14-3-3 isoforms; assay type: binding, human; conditions: SPR, prior to on-chip phosphorylation
Excerpt: (§1) In addition to fluorescence polarization, we used surface plasmon resonance (SPR) as a second, complementary approach to quantify the binding parameters for the TASK-3 C-terminus (Fig. 3, Table 1). […] We developed an on-chip phosphorylation protocol (Fig. 3A) where we first captured the GST fusion proteins on the chip surface with an antibody against GST (which was crosslinked at a high density to the metal surface) and then phosphorylated GST–TASK-3 with recombinantly expressed PKA catalytic subunit (also known as PRKACA; [Knape et al., 2015]). […] Consistent with the results of fluorescence polarization titration, no binding of 14-3-3 proteins was observed prior to on-chip phosphorylation, whereas all 14-3-3 isoforms did bind upon phosphorylation of the TASK-3 C-terminus (Fig. 3C) with equilibrium dissociation constants (Fig. 3D, Table 1) between 45±9 nM (14-3-3γ) to 742±29 nM (14-3-3σ). Depending on the 14-3-3 isoform, these values were very similar (14-3-3η and 14-3-3τ) or differed two- (14-3-3β) to fivefold (14-3-3ε, 14-3-3ζ and 14-3-3σ) from the values determined by fluorescence polarization (Fig. 2, Table 1). […]
(§2) Fig. 3. Affinities of the seven mammalian 14-3-3 isoforms for the phosphorylated TASK-3 C-terminus obtained by surface plasmon resonance are consistent with values obtained using fluorescence polarization. […]

14-3-3σ [1] = target: T1, 14-3-3σ (Homo sapiens, UniProt P31947); assay: Surface plasmon resonance, 14-3-3σ; assay type: binding; conditions: GST fusion captured by anti-GST antibody on chip, phosphorylated on-chip with PKA catalytic subunit; 150 mM NaCl, 20 mM HEPES, 0.005% Tween 20 pH 7.5, 20°C; equilibrium, sigmoidal dose-response fit; ±s.e.m., at least six repeats; read-out: Kd, SPR, 14-3-3σ
T1 construct: Open reading frames encoding human 14-3-3 proteins were inserted into the pMAL2Cx vector at EcoRI and HindIII restriction sites; made in house
T1 sequence (P31947 1-248): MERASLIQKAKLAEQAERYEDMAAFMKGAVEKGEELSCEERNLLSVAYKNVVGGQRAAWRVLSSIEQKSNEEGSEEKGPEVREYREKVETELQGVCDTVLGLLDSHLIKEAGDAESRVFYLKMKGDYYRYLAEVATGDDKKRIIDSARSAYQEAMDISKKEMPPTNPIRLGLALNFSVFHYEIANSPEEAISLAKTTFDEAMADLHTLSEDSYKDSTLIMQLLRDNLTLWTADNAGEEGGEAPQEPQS
Excerpt: as §1, §2

14-3-3γ = target: T2, 14-3-3γ (Homo sapiens, UniProt P61981); assay: Surface plasmon resonance, 14-3-3γ; assay type: binding; conditions: GST fusion captured by anti-GST antibody on chip, phosphorylated on-chip with PKA catalytic subunit; 150 mM NaCl, 20 mM HEPES, 0.005% Tween 20 pH 7.5, 20°C; equilibrium, sigmoidal dose-response fit; ±s.e.m., at least six repeats; read-out: Kd, SPR, 14-3-3γ
T2 construct: Open reading frames encoding human 14-3-3 proteins were inserted into the pMAL2Cx vector at EcoRI and HindIII restriction sites; made in house
T2 sequence (P61981 1-247): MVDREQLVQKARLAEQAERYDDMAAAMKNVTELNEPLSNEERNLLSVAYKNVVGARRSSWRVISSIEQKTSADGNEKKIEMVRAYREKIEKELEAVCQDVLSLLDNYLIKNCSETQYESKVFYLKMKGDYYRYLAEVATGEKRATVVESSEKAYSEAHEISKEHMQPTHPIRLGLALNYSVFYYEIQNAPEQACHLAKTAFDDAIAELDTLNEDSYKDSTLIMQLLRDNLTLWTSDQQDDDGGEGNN
Excerpt: as §1, §2

14-3-3ε = target: T3, 14-3-3ε (Homo sapiens, UniProt P62258); assay: Fluorescence polarization titration with 14-3-3ε; assay type: binding; conditions: versus TASK-3 pS373
T3 construct: Open reading frames encoding human 14-3-3 proteins were inserted into the pMAL2Cx vector at EcoRI and HindIII restriction sites; made in house
T3 sequence (P62258 whole entry): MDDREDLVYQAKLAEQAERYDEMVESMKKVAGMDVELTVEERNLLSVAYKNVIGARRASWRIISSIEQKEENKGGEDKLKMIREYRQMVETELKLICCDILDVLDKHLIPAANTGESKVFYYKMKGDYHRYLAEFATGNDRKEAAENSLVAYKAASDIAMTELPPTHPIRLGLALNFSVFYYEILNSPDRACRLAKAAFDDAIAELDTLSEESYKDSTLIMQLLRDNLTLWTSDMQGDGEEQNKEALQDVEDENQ
Protocol: (§3) TASK-1 or TASK-3 C-terminal fluorescent peptides (10 nM), comprising the last 15 amino acids of the respective C-termini, were titrated with concentrations of the 14-3-3 proteins ranging from 1 nM to 120 µM (Fig. 2), and the equilibrium dissociation constants of 14-3-3 proteins were calculated for TASK-1 phosphorylated at S393 (TASK-1 pS393; the conserved serine residue of the mode III 14-3-3-binding motif) and for TASK-3 phosphorylated at S373 (TASK-3 pS373) (Table 1). They ranged from 7.5±0.14 µM (mean±s.e.m.; 14-3-3β) to 49.4±2 µM (14-3-3τ) for TASK-1, whereas dissociation constants for TASK-3 ranged from 110±10 nM (14-3-3η) to 3.6±0.44 µM (14-3-3σ). The latter value matches the result determined previously by [Anders et al. (2013]) for the TASK-3 C-terminal hexapeptide using isothermal titration calorimetry. […]
(§4) Fig. 2. […] Fluorescence polarization titration of fluorescein-labeled TASK-1 pS393 (black), TASK-3 pS373 (red) and TASK-3 pS373 ΔV374 (blue) peptide (10 nM) with increasing concentrations of the indicated 14-3-3 isoform. Fluorescein was excited at 485 nm, and fluorescence polarization was monitored at 535 nm. […]
(§5) Interactions between 14-3-3 proteins and TASK-1 and TASK-3 C-terminal peptides and variants were investigated using a fluorescence polarization assay ([Moll et al., 2006]; [Muda et al., 2014]). […]

14-3-3β = target: T4, 14-3-3β (Homo sapiens, UniProt P31946); assay: Fluorescence polarization titration with 14-3-3β; assay type: binding; conditions: versus TASK-3 pS373
T4 construct: Open reading frames encoding human 14-3-3 proteins were inserted into the pMAL2Cx vector at EcoRI and HindIII restriction sites; made in house
T4 sequence (P31946 whole entry): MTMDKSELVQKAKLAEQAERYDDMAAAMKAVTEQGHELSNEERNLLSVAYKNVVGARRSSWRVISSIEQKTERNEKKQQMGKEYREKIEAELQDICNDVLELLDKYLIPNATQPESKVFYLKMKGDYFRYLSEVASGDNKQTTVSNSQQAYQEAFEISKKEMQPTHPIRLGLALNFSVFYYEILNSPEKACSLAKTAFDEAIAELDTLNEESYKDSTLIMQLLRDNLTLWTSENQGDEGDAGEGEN
Protocol: as §3, §4, §5

14-3-3σ [2] = target: T1, 14-3-3σ; assay: Fluorescence polarization titration with 14-3-3σ; assay type: binding
Protocol: as §3, §4, §5

[3] = test system: 14-3-3 proteins (all seven isoforms); assay: Fluorescence polarization titration, statements across the 14-3-3 isoforms; assay type: binding, human; conditions: fluorescence polarization; 14-3-3β, 14-3-3γ, 14-3-3ζ, 14-3-3η and 14-3-3τ
Protocol: TASK-1 or TASK-3 C-terminal fluorescent peptides (10 nM), comprising the last 15 amino acids of the respective C-termini, were titrated with concentrations of the 14-3-3 proteins ranging from 1 nM to 120 µM (Fig. 2), and the equilibrium dissociation constants of 14-3-3 proteins were calculated for TASK-1 phosphorylated at S393 (TASK-1 pS393; the conserved serine residue of the mode III 14-3-3-binding motif) and for TASK-3 phosphorylated at S373 (TASK-3 pS373) (Table 1). They ranged from 7.5±0.14 µM (mean±s.e.m.; 14-3-3β) to 49.4±2 µM (14-3-3τ) for TASK-1, whereas dissociation constants for TASK-3 ranged from 110±10 nM (14-3-3η) to 3.6±0.44 µM (14-3-3σ). The latter value matches the result determined previously by [Anders et al. (2013]) for the TASK-3 C-terminal hexapeptide using isothermal titration calorimetry. The dissociation constants of the seven mammalian 14-3-3 isoforms for the same TASK C-terminal peptide differed up to sevenfold for TASK-1-derived peptides and up to 30-fold for TASK-3-derived peptides. […] No binding of any 14-3-3 isoform to any TASK C-terminal peptide was observed when the peptides were not phosphorylated.
Fig. 2. […] Fluorescence polarization titration of fluorescein-labeled TASK-1 pS393 (black), TASK-3 pS373 (red) and TASK-3 pS373 ΔV374 (blue) peptide (10 nM) with increasing concentrations of the indicated 14-3-3 isoform. Fluorescein was excited at 485 nm, and fluorescence polarization was monitored at 535 nm. A monophasic fit was used to fit the data (Goodness-of-fit: R^2 from 0.76 to 0.98). No binding was detectable for the unphosphorylated TASK C-terminal peptides. The assay was repeated at least six times for each data point with two batches of independently purified 14-3-3 proteins. Error bars depict s.e.m. (A) 14-3-3β, (B) 14-3-3γ, (C) 14-3-3ε, (D) 14-3-3ζ, (E) 14-3-3η and (F) 14-3-3τ.
[Mant et al. (2011)] report that both serine residues present in the TASK-1 C-terminus can be phosphorylated in vitro by the recombinant catalytic subunit of PKA. […] Next, using fluorescence polarization titration, we determined how phosphorylation of S392 affects the affinity of all seven mammalian 14-3-3 proteins for the TASK-1 C-terminus – either when phosphorylated alone or in combination with phosphorylation of S393 (Table S1). […] Because all Kd values determined for TASK-1 pS392 and the doubly phosphorylated protein (at S392 and S393) were substantially higher than those measured for TASK-1 pS393 (Table S1), we conclude that phosphorylation of S392 cannot substitute for phosphorylated S393 in creating a high-affinity 14-3-3 binding site. On the contrary, our results are consistent with an inhibitory role for phosphorylation of S392 with respect to 14-3-3-mediated binding.
Interactions between 14-3-3 proteins and TASK-1 and TASK-3 C-terminal peptides and variants were investigated using a fluorescence polarization assay ([Moll et al., 2006]; [Muda et al., 2014]). Fluorescein-labeled peptides were purchased from Peps4Life Sciences (Heidelberg, Germany). All measurements were performed in buffer containing 20 mM MOPS, 150 mM NaCl, 0.005% (v/v) CHAPS pH 7.0, using a Fusion™ α-FP microtiter plate reader at room temperature in a 384-well microtiter plater (Optiplate 384, black; Packard, Meriden, CT). 14-3-3 proteins were serially diluted from 100 µM to 1 nM and incubated with 10 nM of fluorescently labeled peptide. The fluorescence polarization signal was detected for 2 s at an excitation wavelength of 485 nm with an emission fluorescence polarization filter wavelength of 535 nm and a photomultiplier voltage of 1100. Data were analyzed with GraphPad Prism 6.0 (GraphPad Software, San Diego, CA) by plotting the obtained fluorescence polarization signal in millipolarization units (mPol) against the logarithm of the 14-3-3 protein concentration. The data were then fitted using a monophasic fit.

**Q.** How did the “binding of 14-3-3 proteins (in words)” value (14-3-3 proteins) turn out when “GST–TASK-3-CT15: Glutathione S-transferase fused to the TASK-3 C-terminal 15 residues, from E. coli, phosphorylated on-chip with PKA (SFTDHQRLMKRRKSV; also: GST fusion, end not given here, phosphorylated with PKA, site not given here)” was run?
**A.** no binding

**Q.** What about the Kd (14-3-3σ [1]) of the same molecule?
**A.** 742 ± 29 nM

**Q.** And the Kd (14-3-3γ)?
**A.** 45 ± 9 nM

**Q.** For `CSCC[C@H](NC(=O)[C@H](CC(C)C)NC(=O)[C@H](CCCNC(=N)N)NC(=O)[C@H](CCC(N)=O)NC(=O)[C@H](Cc1c[nH]cn1)NC(=O)[C@H](CC(=O)O)NC(=O)[C@@H](NC(=O)[C@H](Cc1ccccc1)NC(=O)[C@H](CO)NC(=O)[C@@H](N)CS)[C@@H](C)O)C(=O)N[C@@H](CCCCN)C(=O)N[C@@H](CCCNC(=N)N)C(=O)N[C@@H](CCCNC(=N)N)C(=O)N[C@@H](CCCCN)C(=O)N[C@@H](COP(=O)(O)O)C(=O)O` [TASK-3 pS373 ΔV374] (H-CSFTDHQRLMKRRK[pS]-OH; N-terminus assumed), which “fold reduction of affinity by the C-terminal deletion, 14-3-3 epsilon” value (14-3-3ε) is on record?
**A.** 23 fold

**Q.** And the “fold reduction of affinity by the C-terminal deletion, 14-3-3β” value (14-3-3β)?
**A.** three

**Q.** What about the “Kd, fluorescence polarization, 14-3-3σ” value (14-3-3σ [2]; 10 nM fluorescein-labeled peptide titrated with 14-3-3 (1 nM to 120 µM), 20 mM MOPS, 150 mM NaCl, 0.005% CHAPS pH 7.0, room temperature, monophasic fit, ±s.e.m., n.b. = no binding detectable) of the same molecule?
**A.** n.b.±n.b.

**Q.** And the “interaction with 14-3-3σ (in words)” value (14-3-3σ [2]; fluorescence polarization titration)?
**A.** could no longer be measured

**Q.** What about the “affinity range (in words)” value [3] of the same molecule?
**A.** low micromolar range
